Measurements as given in PubChem BioAssay (NCI).
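96-well plates; 48 h exposure; 5 concentrations. Endpoints by linear interpolation between flanking doses. Not reached: highest tested concentration assigned. Here, GI50 denotes the concentration required for 50% inhibition of growth. TGI: total growth inhibition.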

Key:
Experiment in all cases: NCI-60 cell line screen, 48 h
[1] = system: MDA-MB-231 breast
[2] = system: IGROV1 ovarian
[3] = system: K-562 leukemia
[4] = system: A498 renal
[5] = system: SW-620 colon
[6] = system: A549 NSCLC
[7] = system: UO-31 renal
[8] = system: HT29 colon
[9] = system: SK-MEL-2 melanoma
[10] = system: UACC-257 melanoma
[11] = system: KM12 colon
[12] = system: HCT-15 colon
[13] = system: SF-539 CNS
[14] = system: DU-145 prostate
[15] = system: UACC-62 melanoma
[16] = system: EKVX NSCLC
[17] = system: RPMI-8226 leukemia
[18] = system: HCT-116 colon
[19] = system: SK-MEL-5 melanoma
[20] = system: M14 melanoma
[21] = system: PC-3 prostate
[22] = system: TK-10 renal
[23] = system: MOLT-4 leukemia
[24] = system: SF-268 CNS
[25] = system: MALME-3M melanoma
[26] = system: OVCAR-4 ovarian
[27] = system: SNB-75 CNS
[28] = system: SK-OV-3 ovarian
[29] = system: U251 CNS
[30] = system: SR leukemia
[31] = system: NCI-H522 lung
[32] = system: HOP-62 NSCLC
[33] = system: 786-0 renal
[34] = system: NCI/ADR-RES ovarian
[35] = system: NCI-H23 lung
[36] = system: HS 578T breast
[37] = system: SN12C renal
[38] = system: NCI-H226 lung
[39] = system: NCI-H460 lung
[40] = system: CAKI-1 renal
[41] = system: CCRF-CEM leukemia
[42] = system: SK-MEL-28 melanoma
[43] = system: ACHN renal
[44] = system: OVCAR-5 ovarian
[45] = system: RXF 393 renal
[46] = system: LOX IMVI melanoma
[47] = system: T-47D breast
[48] = system: SF-295 CNS
[49] = system: OVCAR-3 ovarian
[50] = system: MCF7 breast
[51] = system: MDA-MB-435
[52] = system: HOP-92 NSCLC
[53] = system: OVCAR-8 ovarian
[54] = system: SNB-19 CNS
[55] = system: BT-549 breast
[56] = system: HCC-2998 colon
[57] = system: COLO 205 colon

SMILES: CC(Cc1ccc(O)cc1)NCC(O)c1ccc(O)c(O)c1 (stereo not given)
- TGI [1]: > 100 µM
- TGI [2]: > 100 µM
- TGI [3]: > 100 µM
- TGI [4]: > 100 µM
- TGI [5]: > 100 µM
- TGI [6]: > 100 µM
- TGI [7]: > 100 µM
- TGI [8]: > 100 µM
- TGI [9]: > 100 µM
- TGI [10]: > 100 µM
- TGI [11]: > 100 µM
- TGI [12]: > 100 µM
- TGI [13]: > 100 µM
- TGI [14]: > 100 µM
- TGI [15]: > 100 µM
- TGI [16]: > 100 µM
- TGI [17]: > 100 µM
- TGI [18]: > 100 µM
- TGI [19]: > 100 µM
- TGI [20]: > 100 µM
- TGI [21]: > 100 µM
- TGI [22]: > 100 µM
- TGI [23]: > 100 µM
- TGI [24]: > 100 µM
- TGI [25]: > 100 µM
- TGI [26]: > 100 µM
- TGI [27]: > 100 µM
- TGI [28]: > 100 µM
- TGI [29]: > 100 µM
- TGI [30]: > 100 µM
- TGI [31]: > 100 µM
- TGI [32]: > 100 µM
- TGI [33]: > 100 µM
- TGI [34]: > 100 µM
- TGI [35]: > 100 µM
- TGI [36]: > 100 µM
- TGI [37]: > 100 µM
- TGI [38]: > 100 µM
- TGI [39]: > 100 µM
- TGI [40]: > 100 µM
- TGI [41]: > 100 µM
- TGI [42]: > 100 µM
- TGI [43]: > 100 µM
- TGI [44]: > 100 µM
- TGI [45]: > 100 µM
- TGI [46]: > 100 µM
- TGI [47]: > 100 µM
- TGI [48]: > 100 µM
- TGI [49]: > 100 µM
- TGI [50]: > 100 µM
- TGI [51]: > 100 µM
- TGI [52]: > 100 µM
- TGI [53]: > 100 µM
- TGI [54]: > 100 µM
- TGI [55]: > 100 µM

SMILES: Cc1c(-c2ccc(O)c(O)c2)oc(=O)c2c(O)cc(O)cc12
- GI50 [1]: 86.8 µM
- TGI [1]: > 100 µM
- GI50 [2]: 2300 nM
- TGI [2]: 6.34 µM
- GI50 [3]: 19.5 µM
- TGI [3]: > 100 µM
- GI50 [4]: 20.7 µM
- TGI [4]: 56.8 µM
- GI50 [5]: 4.92 µM
- TGI [5]: > 100 µM
- GI50 [6]: 19.4 µM
- TGI [6]: > 100 µM
- GI50 [7]: 6.9 µM
- TGI [7]: > 100 µM
- GI50 [8]: 54.1 µM
- TGI [8]: > 100 µM
- GI50 [9]: 26 µM
- TGI [9]: > 100 µM
- GI50 [10]: 14.4 µM
- TGI [10]: 53.3 µM
- GI50 [11]: 12.2 µM
- TGI [11]: 54.7 µM
- GI50 [12]: 9.66 µM
- TGI [12]: > 100 µM
- GI50 [13]: 13.2 µM
- TGI [13]: 63.7 µM
- GI50 [14]: 28.8 µM
- TGI [14]: > 100 µM
- GI50 [15]: 8.45 µM
- TGI [15]: 45.1 µM
- GI50 [16]: 15.7 µM
- TGI [16]: 63.9 µM
- GI50 [17]: 7.69 µM
- TGI [17]: 45.3 µM
- GI50 [18]: 14 µM
- TGI [18]: > 100 µM
- GI50 [19]: 6.59 µM
- TGI [19]: 30.8 µM
- GI50 [20]: 8.07 µM
- TGI [20]: 68.3 µM
- GI50 [21]: 29.5 µM
- TGI [21]: > 100 µM
- GI50 [22]: 7.97 µM
- TGI [22]: 36 µM
- GI50 [23]: 42.8 µM
- TGI [23]: > 100 µM
- GI50 [24]: 11.1 µM
- TGI [24]: > 100 µM
- GI50 [25]: 1160 nM
- TGI [25]: 10.3 µM
- GI50 [26]: 46.5 µM
- TGI [26]: > 100 µM
- GI50 [28]: 62.7 µM
- TGI [28]: > 100 µM
- GI50 [29]: 9.67 µM
- TGI [29]: > 100 µM
- GI50 [30]: 4.52 µM
- TGI [30]: > 100 µM
- GI50 [31]: 5.08 µM
- TGI [31]: > 100 µM
- GI50 [32]: 18.2 µM
- TGI [32]: 61.5 µM
- GI50 [33]: 14.4 µM
- TGI [33]: > 100 µM
- GI50 [34]: 14.1 µM
- TGI [34]: > 100 µM
- GI50 [36]: 9.69 µM
- TGI [36]: 91.9 µM
- GI50 [37]: 14.5 µM
- TGI [37]: 59.1 µM
- GI50 [38]: 21.3 µM
- TGI [38]: > 100 µM
- GI50 [56]: 31.5 µM
- TGI [56]: 88.6 µM
- GI50 [39]: 12.1 µM
- TGI [39]: > 100 µM
- GI50 [40]: 11.3 µM
- TGI [40]: 46.5 µM
- GI50 [41]: 2830 nM
- TGI [41]: > 100 µM
- GI50 [42]: 19.8 µM
- TGI [42]: > 100 µM
- GI50 [43]: 21.3 µM
- TGI [43]: > 100 µM
- GI50 [44]: 42.9 µM
- TGI [44]: > 100 µM
- GI50 [45]: 49.8 µM
- TGI [45]: > 100 µM
- GI50 [46]: 13.1 µM
- TGI [46]: > 100 µM
- GI50 [47]: 88.7 µM
- TGI [47]: > 100 µM
- GI50 [48]: 7.52 µM
- TGI [48]: 28.9 µM
- GI50 [49]: 11.1 µM
- TGI [49]: 57.8 µM
- GI50 [50]: 39.1 µM
- TGI [50]: > 100 µM
- GI50 [51]: 2170 nM
- TGI [51]: 6.14 µM
- GI50 [52]: 17.2 µM
- TGI [52]: > 100 µM
- GI50 [57]: 67.4 µM
- TGI [57]: > 100 µM
- GI50 [53]: 17.9 µM
- TGI [53]: 90 µM
- GI50 [54]: 45.6 µM
- TGI [54]: > 100 µM
- GI50 [55]: 6.78 µM
- TGI [55]: 43.2 µM
